We go through one molecule from patent publication US20240115549A1, “TREATMENT OF MENTAL DISORDERS” (GH Research Ireland Limited, priority 2022, published 2024).

Data set [1] deals with Escherichia coli WP2 uvrA pKM101. As to the kind of experiment: Bacterial mutation test, Escherichia coli. It is filed as cell-based. As to conditions: up to 5000 pg/plate, with and without S-9. The source says:
These conditions included treatments at concentrations up to […] (the maximum recommended concentration according to current regulatory guidelines), in the absence and in the presence of a rat liver metabolic activation system (S-9).

A short description of data set [2]: LC-MS/MS of 5-MeO-DMT, bufotenine and 5-MIAA in breastmilk, serum and urine of a treated PPD patient; infant dose estimates. The settings on record: for Breastmilk concentration / Serum concentration / Urine concentration: second PPD patient, LC-MS/MS.
Where [3] appears, read: 5 kg infant, three feeds of 250 ml.
Where [4] appears, read: 8.5 hrs after last dose, inhaled 5-MeO-DMT.
Where [5] appears, read: 24.0 hrs after last dose, inhaled 5-MeO-DMT.
Setting [6] is: 120.0 hrs after last dose, inhaled 5-MeO-DMT.
[7] abbreviates: timepoint −24.0 hrs (pre-dosing), inhaled 5-MeO-DMT 6 mg then 12 mg.

On to `COc1ccc2[nH]cc(CCN(C)C)c2c1` [5-MeO-DMT], for which, in data set [1], the Induction of mutation result is “did not induce mutation”. For the same molecule, the “DID per kg infant weight” value in data set [2] (setting [3]) is 0.0001385 mg/kg/day. Further, in data set [2] (setting [3]), the “Total exposure of the infant (DID)” value was 0.0006924 mg/day. Moreover, the “Detection in breastmilk” value in data set [2] (after 24 hours) is “did not detect any 5-MeO-DMT”. Further, the “Serum concentration at timepoints after 1 hour” value in data set [2] (all subsequent timepoints) was “below the lower limit of quantification”. In addition, the Breastmilk concentration was 2167.0 pg/mL in data set [2] (1.0 hrs after last dose, inhaled 5-MeO-DMT); 560.6 pg/mL in data set [2] (2.5 hrs after last dose, inhaled 5-MeO-DMT); 42.1 pg/mL in data set [2] (setting [4]); “BLG” in data set [2] (setting [5]); “BLQ” in data set [2] (setting [6]); “BLQ” in data set [2] (setting [7]). Moreover, in data set [2] (female, human, serum, inhaled), the concentration at 1 h was 133 µg/mL. For the same molecule, the Serum concentration was 0.0001329 µg/mL in data set [2] (serum, 1.0 hrs after last dose, inhaled 5-MeO-DMT); “BLQ” in data set [2] (serum, 2.5 hrs after last dose, inhaled 5-MeO-DMT); “BLQ” in data set [2] (serum, 24.0 hrs after last dose, inhaled 5-MeO-DMT); “BLQ” in data set [2] (serum, 120.0 hrs after last dose, inhaled 5-MeO-DMT); “BLQ” in data set [2] (serum, timepoint −24.0 hrs (pre-dosing), inhaled 5-MeO-DMT 6 mg then 12 mg). For the same molecule, the Urine concentration entry in data set [2] (setting [4]), in data set [2] (setting [5]), in data set [2] (setting [6]) and in data set [2] (setting [7]) was “BLQ” throughout.
